Assay results published in patent US20060189574A1, “Method of treating high plasma cholesterol levels” (priority 2000, published 2006).

Experiments:
fat absorption = conditions: humans; cited from earlier work
animal models = conditions: cited from earlier work
plasma cholesterol = assay: Effect of Orlistat/XENICAL and cholestyramine/[…] on plasma cholesterol in volunteers; type: in vivo, human; conditions: for plasma cholesterol, mean: mean of volunteers
Description: The effect of a combination of Orlistat/XENICAL® and a bile acid sequestrant cholestyramine/[…]® on plasma cholesterol was examined.
Three hyper-cholesterolemic volunteers, one female, 2 males, […] cholesterol level: They continued on a combination of […], […]

CCCCCCCCCCC[C@@H](C[C@@H]1OC(=O)[C@H]1CCCCCC)OC(=O)[C@H](CC(C)C)NC=O [Xenical, Orlistat]
fat absorption (fat absorption): potent inhibition of fat absorption
body weight (animal models): reduce body weight
fat absorption (animal models): inhibit fat absorption
plasma cholesterol course (plasma cholesterol; all three individuals, end of 6 weeks treatment with Xenical b.i.d.): reasonably stable
plasma cholesterol, mean (plasma cholesterol; week 4, Xenical b.i.d.): 252 mg/100 ml
plasma cholesterol, mean (plasma cholesterol; week 5, Xenical b.i.d.): 225 mg/100 ml
plasma cholesterol, mean (plasma cholesterol; week 6, Xenical b.i.d.): 247 mg/100 ml
plasma cholesterol, mean (plasma cholesterol; week 11, Xenical b.i.d. after cessation of Quantalan): 253 mg/100 ml
plasma cholesterol, mean (plasma cholesterol; week 13, Xenical b.i.d. after cessation of Quantalan): 263 mg/100 ml
plasma cholesterol (plasma cholesterol; volunteer 1, week 4, Xenical b.i.d.): 252 mg/100 ml
plasma cholesterol (plasma cholesterol; volunteer 1, week 5, Xenical b.i.d.): 239 mg/100 ml
plasma cholesterol (plasma cholesterol; volunteer 1, week 6, Xenical b.i.d.): 233 mg/100 ml
plasma cholesterol (plasma cholesterol; volunteer 1, week 11, Xenical b.i.d. after cessation of Quantalan): 247 mg/100 ml
plasma cholesterol (plasma cholesterol; volunteer 2, week 4, Xenical b.i.d.): 236 mg/100 ml
plasma cholesterol (plasma cholesterol; volunteer 2, week 5, Xenical b.i.d.): 212 mg/100 ml
plasma cholesterol (plasma cholesterol; volunteer 2, week 6, Xenical b.i.d.): 232 mg/100 ml
plasma cholesterol (plasma cholesterol; volunteer 2, week 11, Xenical b.i.d. after cessation of Quantalan): 230 mg/100 ml
plasma cholesterol (plasma cholesterol; volunteer 2, week 13, Xenical b.i.d. after cessation of Quantalan): 226 mg/100 ml
plasma cholesterol (plasma cholesterol; volunteer 3, week 4, Xenical b.i.d.): 269 mg/100 ml
plasma cholesterol (plasma cholesterol; volunteer 3, week 6, Xenical b.i.d.): 277 mg/100 ml
plasma cholesterol (plasma cholesterol; volunteer 3, week 11, Xenical b.i.d. after cessation of Quantalan): 282 mg/100 ml
plasma cholesterol (plasma cholesterol; volunteer 3, week 13, Xenical b.i.d. after cessation of Quantalan): 300 mg/100 ml
